# Reference: PMC2774465 (Journal of natural products, 2008)
# Where two headings read alike, the source gives them in different places.
# Legend:
# [1] = test system: Trypanasoma cruzi; experiment: Chagas disease bioassay; format: cell-based, T. cruzi; details: Trypanosoma cruzi
# [2] = test system: Plasmodium falciparum; experiment: Malaria bioassay; format: cell-based
# [3] = test system: L. donovani amastigotes (LD-1S/MHOM/SD/00-strain 1S); format: cell-based; details: Leishmania donovani, read-out: IC50 L. donovani
# [4] = test system: Leishmania; details: cited from earlier work
IC50 ([1]; read-out: IC50 T. cruzi) [µg/mL],IC50 ([2]; read-out: IC50 P. falciparum) [µg/mL],SMILES,other results
> 10,,"O=C1C=C[C@]23Oc4ccc(O)c5c4[C@](CCC5=O)(Oc4cccc1c42)O3 [Compound 1, preussomerin EG1]",
,> 10,"O=C1CCC2(Oc3cccc4cccc(c34)O2)c2cccc(O)c21 [Compound 2, palmarumycin CP2]",
> 10,> 10,"O=C1CCC2(Oc3cccc4cccc(c34)O2)c2c(O)ccc(O)c21 [Compound 3, palmarumycin CP17]",
> 10,> 10,"O=C1C=CC(=O)C2=C1[C@@H](O)CCC21Oc2cccc3cccc(c23)O1 [Compound 4, 4(S)-hydroxy-2,3-dihydro-2(H)-spiro[naphthalene-1(4H),2'-naphtho[1,8-de][1,3]dioxin]-5,8-dione]",
,> 10,"Oc1cccc2c1[C@@H](O)CCC21Oc2cccc3cccc(c23)O1 [Compound 5, CJ-12,371]",
,,C[C@@H]1[C@H](O)[C@@H](C)/C=C/C=C/C=C/C=C/C=C/C=C/C=C/[C@H](O[C@@H]2O[C@H](C)[C@@H](O)[C@H](N)[C@@H]2O)C[C@@H]2O[C@](O)(C[C@@H](O)C[C@@H](O)[C@H](O)CC[C@@H](O)C[C@@H](O)CC(=O)O[C@H]1C)C[C@H](O)[C@H]2C(=O)O [amphotericin B],IC50 [3]: 90 nM
,,COc1cc(OC)c(-c2c(C)cc3cccc(OC)c3c2O)c2c1C(C)=N[C@@H](C)C2 [ancistrotanzanine A],antileishmanial activity IC50 [4]: 1.8 µg/mL
,,COc1cc(OC)c(-c2ccc(OC)c3c(OC)cc(C)cc23)c2c1C(C)=N[C@@H](C)C2 [ancistrotanzanine B],antileishmanial activity IC50 [4]: 1.6 µg/mL
,,"CCN(CC)CCCC(C)Nc1ccnc2cc(Cl)ccc12 (stereo not drawn) [chloroquine, reference compound]","IC50 ([2]; read-out: IC50 (positive control, malaria bioassay)): 80 to 100 nM"
,,"CC1CS(=O)(=O)CCN1/N=C/c1ccc([N+](=O)[O-])o1 (stereo not drawn) [nifurtimox, reference compound]","IC50 ([1]; read-out: IC50 (positive control, Chagas disease bioassay)): 3 to 5 µg/mL"
